# Data reported in patent US4668684A, “Combination of flupirtin and anticholinergic acting spasmolytic” (priority 1985, dated 1987).
# Where a name gives a salt, the structure may show the parent alone. Read-outs that look alike come from different tables or passages of the source.
# Key:
# [1] = test system: writhing syndrome (mouse); test: Acetic acid test (Writhing test) on the mouse, analgetic effect; assay type: in vivo, NMRI-Mouse; details: alone; for ED50: Mus musculus, po, 0.5 h, read-out: ED50 after 30 minutes; for Analgetic Effect in %: average of 10 mice
# [2] = test system: guinea pig small intestine; test: Spasmolytic effect on the guinea pig small intestine in situ (acetylcholine spasm); assay type: in vivo; details: for Spasmolytic activity (in words) / % Spasmolytic Effect: alone; for Spasmolytic activity (in words): intraduodenally; for % Spasmolytic Effect: negative value
# Experimental: A balloon catheter was introduced into the ileum of guinea pigs narcotized with urethane (1.8 g/kg subcutaneously) after tracheotomy (tying up a tracheal channel to make breathing easier) and the catheter filled with air. Rhythmic contractions were carried out by the intestine, the so-called […] (dependent upon filling), through which a pressure is exerted on the rubber balloon. The pressure […] changes were recorded on a linear recorder via a pressure recorder connected to the balloon catheter and a carrier frequency bridge (TF of Hellige Co.). On one there can be measured the spontaneous […], on the other the spasms released by superfusion of […] (acetylcholine iodide, barium chloride or carbachol). By previously giving the […] intravenously or intraduodenally the height of the spasms released is retarded and can be determined in percent spasmolysis compared to a starting value. There is given as spasmolytic effect or spasmolysis how great a percent of spasm is liberated by the spasmogen (e.g. acetylcholine iodide) compared to the value which originates from the spasmogen (on the same animal).
# in vivo = details: mouse, po
# [3] = test system: gastrointestinal passage (guinea pigs); test: Carbon transport model (influence on the gastrointestinal passage); assay type: in vivo, guinea pig; details: alone; for ED50: peroral, linear regression; for Spasmolytic Effect, Retardation in %: negative value
# Experimental: Relying on Komlus and Pet/o/ cz (and modifications) (1970) Arzneim Forsch. Volume 20, pages 1338-1357 guinea pigs received 30 minutes after being given the substance a 10% carbon suspension in demineralized water in a volume of 1 ml/animal dispensed with the stomach probe. 0.5 hours later the animals were killed and starting from the stomach there was measured on one animal the entire length of intestine, on the others the length of the stretch blackened by the carbon. The stretch changed by the carbon was calculated in percent of the entire length in order to compensate for the different intestinal lengths of the individual animals in the evaluation of the effect of the substance. The effect on the gastro-intestinal passage is given from the comparison between the control and the animals (average value) treated with the substances. Ascertaining the ED50 (dosage in mg/kg at which there is 50% retardation of the carbon transport) is by means of linear regression.
# Retardation of carbon transport signifies spasmolytic effect. The greater this retardation the greater also is the spasmolytic effect.
# *Calculation of the ED50 by means of linear regression
# [4] = test system: gall bladder of the mouse; test: Gall bladder model on the mouse, spasmolytic effect; assay type: in vivo, NMRI-Mouse; details: alone; for ED50: Mus musculus, po, peroral, linear regression
# Experimental: The experiment is carried out relying on the methods of […] and Toson, J. Pharmacol. Methods Volume 7, pages 193 et. seq. (1982). The principle of this method is the gravimetric measurement of the gall bladder of the mouse. The gall bladder was stimulated through dispensation of egg yolk for delivery of bile. This delivery was carried out through natural spasms of the gall bladder. By previously dispensing a spasmolytically acting test material these spasms of the gall bladder were retarded and therewith likewise the delivery of bile. Thus the heavier the gall bladder is after dispensing the egg yolk the less bile it has delivered. The weight of the gall bladder in this test therefore is a measure of the spasmolytic effect of a material. […] The control animals received Methocel in the corresponding amount. […] Because of the evaluation 2 control groups must be present. […] The egg yolk suspension consisted of 3 parts by weight egg yolk in 7 parts by weight NaCl 0.9%. For this reason control group No. 1 also received 1 ml NaCl 0.9%. […] The gall bladder was prepared and weighed. The evaluation was carried out according to the formula: [(A-B)/(C-B)]×100=% Activity […]
smiles,measurement,setting,value
"CCOC(=O)Nc1ccc(NCc2ccc(F)cc2)nc1N [Flupirtin (Maleate), 2-amino-3-carbethoxyamino-6-(4-fluoro-benzylamino)-pyridine]",ED50,"[1]; per os, linear regression",44.7 mg/kg
same,Analgetic Effect in %,[1]; 20.0 mg/kg per os,12.0%
same,Analgetic Effect in %,[1]; 40.0 mg/kg per os,54.0%
same,Analgetic Effect in %,[1]; 80.0 mg/kg per os,70.0%
same,Spasmolytic effect / ED50 (in words),"[2]; alone, 10.0, 30.0 and 50.0 mg/kg intraduodenally, 30 minutes after dispensation",no spasmolytic
CC[N+](C)(CC)CCOC(C)(c1ccccc1)C1CC2C=CC1C2.[Br-] (stereo not shown) [Ciclonium bromide],Analgetic Effect in %,[1]; 0.01 mg/kg per os,18.5%
same,Analgetic Effect in %,[1]; 0.1 mg/kg per os,46.3%
same,Analgetic Effect in %,[1]; 0.5 mg/kg per os,53.1%
same,ED50 after 30 minutes,"[1]; per os, linear regression",0.26 mg/kg
"CCOC(=O)Nc1ccc(NCc2ccc(F)cc2)nc1N [Flupirtin (Gluconate), 2-amino-3-carbethoxyamino-6-(4-fluoro-benzylamino)-pyridine]",Analgetic Effect in %,[1]; 0.56 mg/kg per os,19.2%
same,Analgetic Effect in %,[1]; 1.12 mg/kg per os,28.0%
same,Analgetic Effect in %,[1]; 2.24 mg/kg per os,37.6%
same,Analgetic Effect in %,[1]; 4.47 mg/kg per os,46.4%
same,Analgetic Effect in %,[1]; 8.93 mg/kg per os,38.4%
same,Analgetic Effect in %,[1]; 17.85 mg/kg per os,22.4%
same,Analgetic Effect in %,[1]; 35.7 mg/kg per os,61.6%
"CCOC(=O)Nc1ccc(NCc2ccc(F)cc2)nc1N [Flupirtin, 2-amino-3-carbethoxyamino-6-(4-fluoro-benzylamino)-pyridine]",Spasmolytic activity (in words),[2],no spasmolytic activity
same,LD50,in vivo,552 mg/kg
same,ED50,[3],cannot be calculated
"CCOC(=O)Nc1ccc(NCc2ccc(F)cc2)nc1N [Flupirtin (HCl), 2-amino-3-carbethoxyamino-6-(4-fluoro-benzylamino)-pyridine]","Spasmolytic Effect, Retardation in %",[3]; 20.0 mg/kg peroral,-11.73%
same,"Spasmolytic Effect, Retardation in %",[3]; 40.0 mg/kg peroral,-21.55%
same,"Spasmolytic Effect, Retardation in %",[3]; 80.0 mg/kg peroral,-18.70%
same,ED50,[3],not dosage depen-
same,ED50,[4],2.4 mg/kg
same,Spasmolytic Effect in %,[4]; 1.0 mg/kg peroral,30.06%
same,Spasmolytic Effect in %,[4]; 3.0 mg/kg peroral,64.36%
same,Spasmolytic Effect in %,[4]; 10.0 mg/kg peroral,69.25%
"CCCC[N+]1(C)C2CC(OC(=O)C(CO)c3ccccc3)CC1C1OC12 (stereo not shown) [Butylscopolammonium bromide, butylscopolammonium bromide]",ED50,"[1]; per os, linear regression",1.5 mg/kg
same,Analgetic Effect in %,[1]; 0.5 mg/kg per os,22.4%
same,Analgetic Effect in %,[1]; 1.0 mg/kg per os,48.4%
same,Analgetic Effect in %,[1]; 2.0 mg/kg per os,64.6%
same,Analgetic Effect in %,[1]; 4.0 mg/kg per os,59.0%
same,% Spasmolytic Effect,"[2]; 50.0 mg/kg intraduodenally, 30 minutes after dispensation",-13.1%
same,% Spasmolytic Effect,"[2]; 100.0 mg/kg intraduodenally, 30 minutes after dispensation",-37.9%
same,% Spasmolytic Effect,"[2]; 200.0 mg/kg intraduodenally, 30 minutes after dispensation",-35.0%
same,Spasmolytic activity (in words),[2],no dosage dependent spasmolytic activity
same,ED50,"[3]; Cavia porcellus, po, read-out: ED50",132 mg/kg
same,"Spasmolytic Effect, Retardation in %",[3]; 30.0 mg/kg peroral,-8.16%
same,"Spasmolytic Effect, Retardation in %",[3]; 100.0 mg/kg peroral,-58.39%
same,"Spasmolytic Effect, Retardation in %",[3]; 300.0 mg/kg peroral,-61.62%
same,ED50,[4],117 mg/kg
same,Spasmolytic Effect in %,[4]; 3.0 mg/kg peroral,4.6%
same,Spasmolytic Effect in %,[4]; 10.0 mg/kg peroral,19.1%
same,Spasmolytic Effect in %,[4]; 30.0 mg/kg peroral,20.7%
same,Spasmolytic Effect in %,[4]; 100.0 mg/kg peroral,35.9%
same,Spasmolytic Effect in %,[4]; 300.0 mg/kg peroral,76.6%
